In patent US6420538B1, “Aromatic amides, preparation method and application as medicines” (Aventis Pharma S.A., priority 1998, dated 2002):

Assays:
Experiment in all cases: Method of dilutions in liquid medium (MIC)
Format in all cases: cell-based
Conditions in all cases: 24 hours at 37° C.
[1] = tested on: Strepto. pneumoniae 030BI2
Description: (§1) A—Method of dilutions in liquid medium A series of tubes is prepared in which the same quantity of sterile nutritive medium is distributed. Increasing quantities of the product to be studied are distributed into each tube, then each tube is sown with a bacterial strain. After incubation for twenty-four hours in an oven at 37° C., the growth inhibition is evaluated by transillumination, which allows the minimal inhibitory concentrations (M.I.C.) to be determined, expressed in micrograms/cm^3. Activity in vitro MIC in μg/ml

[2] = tested on: Entero faecalis 02D2UC5
Description: as §1

[3] = tested on: Staph. aureus 011HT18
Description: as §1

[4] = tested on: Staph. epidermidis 0126042
Description: as §1

[5] = tested on: Entero faecium 02D3IP2
Description: as §1

[6] = tested on: Staph. coag. negative 012HT5
Description: as §1

[7] = tested on: Strepto. pyogene 02A1UC1
Description: as §1

| SMILES | Activity in vitro MIC [1] [µg/mL] | Activity in vitro MIC [2] [µg/mL] | Activity in vitro MIC [3] [µg/mL] | Activity in vitro MIC [4] [µg/mL] | Activity in vitro MIC [5] [µg/mL] | Activity in vitro MIC [6] [µg/mL] | Activity in vitro MIC [7] [µg/mL] |
| --- | --- | --- | --- | --- | --- | --- | --- |
| C#CCONC(=O)O[C@H]1[C@@H](O)[C@H](Oc2ccc3c(O)c(C(N)=O)c(=O)oc3c2C)OC(C)(C)[C@@H]1OC [Ex. 1, (2-propynyloxy)-carbamic 3′ester of 7-[[6-deoxy-5-C-methyl-4-O-methyl-alpha-L-lyxo-hexopyranosyl]oxy]-4-hydroxy-8-methyl-2-oxo-2H-1-benzopyran-3-carboxamide acid] | 0.04 | 0.3 | 0.04 | 0.04 | 0.08 | 0.3 | 0.6 |
| C#CCONC(=O)O[C@H]1[C@@H](O)[C@H](Oc2ccc3c(O)c(C(=O)NCCN4CCOCC4)c(=O)oc3c2C)OC(C)(C)[C@@H]1OC [Ex. 2, 7-[(6-deoxy-5-C-methyl-4-O-methyl-alpha-L-lyxo-hexopyranosyl)oxyl]-4-hydroxy-8-methyl-N-[2-(4-morpholinyl)ethyl]-2-oxo-2H-1-benzopyrane-3-carboxamide (2-propynyloxy)-carbamic 3′-ester acid] | 0.08 | 1.2 | 0.04 | 0.04 | 0.6 | 0.04 | 0.3 |
| C#CCONC(=O)O[C@H]1[C@@H](O)[C@H](Oc2ccc3c(O)c(C(C)=NOC)c(=O)oc3c2C)OC(C)(C)[C@@H]1OC [Ex. 3, 7-[[6-deoxy-5-C-methyl-4-O-methyl-alpha-L-lyxo-hexopyranosyl]oxy]-4-hydroxy-3-[1-(methoxyimino)ethyl]-8-methyl-2H-1-benzopyran-2-one(2-propynyloxy)-carbamic-3′-ester acid] | 0.08 | 1.2 | 0.04 | 0.04 | 1.2 | 0.15 | 0.6 |
| C#CCONC(=O)O[C@H]1[C@@H](O)[C@H](Oc2ccc3c(O)c(C(C)=NOCC)c(=O)oc3c2C)OC(C)(C)[C@@H]1OC [Ex. 4, 7-[(6-deoxy-5-C-methyl-4-O-methyl-alpha-L-lyxo-hexopyranosyl)oxy]-3-[1-(ethoxyimino)ethyl]-4-hydroxy-8-methyl-2H-1-benzopyran-2-one(2-propynyloxy)-carbamic 3′-ester acid] | 0.15 | 1.2 | 0.04 | 0.15 | 1.2 | 0.15 | 0.6 |
